We go through 5 compounds from patent US20030134901A1, “Lipoxin compounds and their use in treating cell proliferative disorders” (priority 1993, published 2003).

Assay [1] deals with HUVEC (putative LTD4 receptors). Nature of the assay: 3H-LXA4 specific binding to HUVEC. On the set-up: species or system human. The protocol:
Cell cultures and differentiation. HL-60 cells were seeded in RPMI medium supplemented with 100 U/ml penicillin, 100 μg/ml streptomycin, and 10% fetal calf serum (Hyclone, Logan, Utah), incubated at 37° C. with 5% CO2 atmosphere in 250 ml flasks. […] Human umbilical vein endothelial cells (HUVEC) maintained in culture third passage were obtained from Dr. M. Gimbrone (Brigham and Women's Hospital Department of Pathology).
Binding experiments with HUVEC cells were performed in 12 well plates with 3.5×10^5 cells/well. After 10 min, wells were washed twice with PBS and cell-associated label was recovered by adding glacial acetic acid (0.5 ml). Results obtained from these assays were submitted for further analysis using the Ligand program (Elsevier-Biosoft, Cambridge, UK).

Assay [2] deals with T1, LXA4 specific binding sites of differentiated HL-60 cells (Homo sapiens, UniProt P25090).
T1 construct: endogenous in cells; host or cells: HL-60 cells differentiated with DMSO, retinoic acid or PMA; intact cells
T1 sequence (P25090 1-351): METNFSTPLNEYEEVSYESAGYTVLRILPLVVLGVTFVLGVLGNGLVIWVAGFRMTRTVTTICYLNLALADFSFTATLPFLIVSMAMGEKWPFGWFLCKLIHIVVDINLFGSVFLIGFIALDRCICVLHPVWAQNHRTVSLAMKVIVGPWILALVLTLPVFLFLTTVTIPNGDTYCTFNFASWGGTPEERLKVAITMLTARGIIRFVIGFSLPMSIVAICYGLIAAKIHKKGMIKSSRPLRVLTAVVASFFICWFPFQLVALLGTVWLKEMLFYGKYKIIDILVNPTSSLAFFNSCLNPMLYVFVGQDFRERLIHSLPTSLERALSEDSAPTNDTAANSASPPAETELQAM
In words: 3H-LXA4 specific binding to differentiated HL-60 cells. The protocol: Preparation of [11,12-^3H]LXA4. Tritiation of 11,12-acetylenic LXA4 methyl ester was carried out under a custom tritiation service (NET-259:92-2326) by New England Nuclear (Boston, Mass.). Briefly, 11,12-acetylene methyl ester was characterized by UV absorbance and reverse-phase HPLC as in (Nicolaou, K. C. et al. (1985) J. Am. Chem. Soc. 107:7515) and exposed to tritium atmosphere in methylene chloride at room temperature. This incubation was stirred in the presence of Lindlar catalyst (1.0 mg from Fluka Chemicals) for˜1 h. The resulting mixture was stored in methanol and isolated using RP-HPLC. Tritiated products were chromatographed as methyl esters utilizing a gradient HPLC system equipped with a photodiode array rapid spectral detector (Serhan, C. N., Methods in Enzymology: Arachidonate Related Lipid Mediators, in Murphy R. C., Fitzpatrick, F. (eds.), vol. 187. Orlando, Fla., Academic, (1990), p. 167). This mixture contained both [11,12-^3H]LXA4 and [11,12-^3H]-11-trans-LXA4 methyl esters (˜1:3 ratio) as determined by coelution with synthetic standards. After RP-HPLC, fractions containing [11,12-^3H]LXA4 were collected, and extracted into ethyl acetate. The free acid was prepared by LiOH saponification (Fiore, S. et al. (1992) J. Biol. Chem. 267:16168). Material from these fractions, when injected into UV-electrochemical detection HPLC, gave greater than 90% of radioactivity associated with a tetraene-containing product that coeluted with synthetic LXA4. Materials that eluted with the retention time of authentic LXA4 in two HPLC systems were taken for binding experiments. The specific activity calculated for [11,12-^3H]LXA4 was 40.5 Ci/mmole.
(§1) Cell cultures and differentiation. HL-60 cells were seeded in RPMI medium supplemented with 100 U/ml penicillin, 100 μg/ml streptomycin, and 10% fetal calf serum (Hyclone, Logan, Utah), incubated at 37° C. with 5% CO2 atmosphere in 250 ml flasks. Individual flasks containing ˜[…] next received dimethyl sulfoxide (DMSO) (1.12% v/v, 120 h) or retinoic acid (RA) (1 μM, 120 h) or phorbol myristate acetate (PMA) (20 nM, 48 h). Before performing binding assays, cells were washed twice in phosphate buffered saline (PBS), Ca^2+- and Mg^2+-free, enumerated and suspended at 20×10^6 cells/ml in Tris buffer (10 mM), pH 7.4 (Fiore, S. et al.(1992) J. Biol. Chem. 267:16168). Nitro blue tetrazolium reduction was performed to monitor induction of polymorphonuclear phenotype as in (Imaizumi, M. and Breitman, T. R. (1986) Blood 67:1273), and cell adherence was determined for induction of macrophage-like phenotype (Collins, S. J. (1987) Blood 70:1273). Human umbilical vein endothelial cells (HUVEC) maintained in culture third passage were obtained from Dr. M. Gimbrone (Brigham and Women's Hospital Department of Pathology).
Ligand binding. ^3H-LXA4 and ^3H-LTB4 binding was performed essentially as in Fiore, S. et al.(1992) J. Biol. Chem. 267:16168. After suspending cells in Tris buffer 10 mM (pH 7.4, Ca^2+ 2.5 mM, Mg^2+ 1.2 mM), aliquots (0.5 ml) were incubated (20 min at 4° C.) with ^3H- ligands alone (0.3 nM) or in the presence of increasing concentrations of homoligands or other compounds (3-300 nM). The incubations were rapidly centrifuged (60 sec, 12,000 g) on silicon oil (d=1.028), and cell-associated radioactivity was determined by liquid scintillation counting (Wallac 1409, Pharmacia, Piscataway, N.J.). Binding experiments with HUVEC cells were performed in 12 well plates with 3.5×10^5 cells/well. After 10 min, wells were washed twice with PBS and cell-associated label was recovered by adding glacial acetic acid (0.5 ml). Results obtained from these assays were submitted for further analysis using the Ligand program (Elsevier-Biosoft, Cambridge, UK).

Assay [3] relates to PLD activity in differentiated HL-60 cells. Nature of the assay: PLD activity (PEt formation) in differentiated HL-60 cells. It counts as cell-based, human. The note with it: HL-60 cells; IAP (300 ng/ml) at LXA4 10^−9-10^−10 M, staurosporine (100 nM) at LXA4 10^−7 M. As for the experimental part:
as §1
PLD activity. Human PMN and HL-60 cells (50×10^6 cells/ml) prepared as above were incubated with ^3H-myristic acid or ^3H-palmitic acid (8 μCi/50×10^6 cells) for 40-60 min at 37° C. in PBS. Cell uptake ranged between 60-80% of added label, 7.1±4.2% (n=10; mean ±S.D.) and 32.6±10.3% (n=6; mean ±S.D.) into total phospholipid classes of PMN and HL-60 cells, respectively. Incubations were carried out at 37° C. (10 ×10^6 cells/ml PBS). […] At indicated times, incubations were stopped by adding 3.5 ml of ice cold CHCl3/MeOH (2/5, v/v) containing 1-^14C-arachidonic acid (5,000 cpm) used here as internal standard to quantitate extraction recoveries. […] Regions corresponding to PA, PEt, and internal standards were scraped and quantified by liquid scintillation counting. […] All values reported for PEt formation in Tables 4 and 5 were calculated by subtracting the dpm obtained in the presence of […]. […]

Assay [4] has as its system PLD activity in human PMN. Nature of the assay: PLD activity (PEt formation) in PMN. The note with it: PMN; IAP at LXA4 10^−9-10^−10 M, staurosporine (100 nM) at LXA4 10^−7 M. The class given is cell-based. The protocol:
PMN, platelet and RBC isolation from peripheral blood. Human PMN were obtained by the modified Böyum method (Böyum, A. (1968) Scan. J. Clin. Lab. Invest. 21:77) from fresh heparinized blood after venipuncture of healthy normal volunteers. Suspensions in PBS were monitored for cell number and viability by their ability to exclude trypan blue both exceeding 98%. Red blood cells were obtained from 10 ml of heparinized blood after three centrifugations in PBS (2,500 rpm, 10 min at 21° C.). Blood drawn in acidic citrate dextrose (9:1, v/v) was used to isolate platelets as previously described (Serhan, C. N. and Sheppard, K.-A. (1990) J. Clin. Invest. 85:772). PLD activity. Human PMN and HL-60 cells (50×10^6 cells/ml) prepared as above were incubated with ^3H-myristic acid or ^3H-palmitic acid (8 μCi/50×10^6 cells) for 40-60 min at 37° C. in PBS. […] Incubations were carried out at 37° C. (10 ×10^6 cells/ml PBS). […] M. et al. (1989) J. Biol. Chem. 264:17069. At indicated times, incubations were stopped by adding 3.5 ml of ice cold CHCl3/MeOH (2/5, v/v) containing 1-^14C-arachidonic acid (5,000 cpm) used here as internal standard to quantitate extraction recoveries. Samples were extracted using a modified Bligh and Dyer extraction as in (Serhan, C. N. and Sheppard, K. -A. (1990) J. Clin. Invest. 85:772). Organic phases, concentrated in 50 μL of CHCl3/MeOH (8/2, v/v), were spotted onto linear […] TLC plates developed with the organic phase of ethyl acetate[…][…] (110/50/20/100, v/v/v/v) for 50 min ([…]. et al.(1989) J. Biol. Chem. 264:17069). […] Regions corresponding to PA, PEt, and internal standards were scraped and quantified by liquid scintillation counting. […] In these experiments, PA was resolved using ethyl acetate[…][…]) as solvent system ([…]. et al. (1989) Anal. […] Impact of IAP and staurosporine on LXA4-induced PLD activity. PLD activity assays, performed as described (vide supra), were preceded by cell exposure to either IAP or staurosporine. […]

With `CCCCC/C=C\C\C=C/C=C/C=C/[C@@H](SC[C@H](N)C(=O)NCC(=O)O)[C@@H](O)CCCC(=O)O` [LTD4], the “competition of specific 3H-LXA4 binding” value in assay [1] is reported as “effective in competing”. On to `O=C(O)CCS[C@H](c1ccccc1CCCCCCCCc1ccccc1)[C@@H](O)C(=O)O` [SKF 104353], for which the “displacement of 3H-LXA4 specific binding” value in assay [2] (competition, competitor 300 nM where printed) is “did not displace”. Besides, the “competition of specific 3H-LXA4 binding” value in assay [1] is on record as “effective in competing”.

As usually defined, the Kd is the equilibrium constant for the complex coming apart. A low value points to a tighter complex. For the compound `[3H]C(/C=C/C=C/[C@@H](O)[C@@H](O)CCCC(=O)O)=C([3H])/C=C/[C@@H](O)CCCCC` [[11,12-^3H]LXA4], the dissociation constant (Kd) in assay [2] (isotherm binding, 4° C., 10 min, 0.1-30 nM) was 0.6 ± 0.3 nM; in assay [1], 11 ± 2.6 nM.

`CN[C@@H]1C[C@H]2O[C@@](C)([C@@H]1OC)n1c3ccccc3c3c4c(c5c6ccccc6n2c5c31)C(=O)NC4` [staurosporine]: the “effect on LXA4-mediated PLD activity” value in assay [3] and in assay [4] was “inhibited by staurosporine” throughout. As to IAP: Islet activating protein, the “effect on LXA4-mediated PLD activity” value in assay [3] and in assay [4] was “sensitive to IAP treatment” throughout.
